The first experiment has as its system ADP-Induced Platelet Aggregation. Nature of the experiment: Inhibition of ADP-induced platelet aggregation in rabbit platelet-rich plasma (microplate method). As to conditions: Oryctolagus cuniculus, Platelet; 30 μM, rabbit PRP, inducer ADP; read-out: Inhibition rate of target compounds on platelet aggregation at 30 μM. It counts as cell-based. The procedure: Example 62 Investigation on Inhibition of ADP-Induced Platelet Aggregation in Rabbit
A blood sample was collected from ear vein of a healthy male rabbit, added with 3.8% sodium citrate for anticoagulation and then centrifuged at 800 r/min for 10 min to prepare platelet-rich plasma (PRP) and at 3,000 r/min for 10 min to prepare platelet-poor plasma (PPP). The investigation on the plasma should be performed within 0.5-3 h after the preparation.
2. Determination of Platelet Aggregation by Microplate Method
The drugs to be tested were weighed and added with an appropriate amount of DMSO to prepare a series of 10 mM stock solutions, which were respectively diluted to prepare 10× stock solutions with normal saline for further use.
Several wells of a microplate were selected as test wells, which were added with 135 μL of PRP and then respectively added with 15 μL of the 10× stock solutions. A well in which 135 μL of PRP and 15 μL of normal saline were added was used as the vehicle control, and a well in which 135 μL of PPP and 15 μL of normal saline were added was used as the blank control. Duplicate wells were set for each test well. The plate was shaken, incubated at 37° C. for 5 min, and then measured for A0 at 655 nm. Subsequently, the microplate was added with 15 μL of an inducer […] (ADP) working solution (25 μmol/L) in each well, incubated at 37° C. under shaking and measured at 655 nm for A1, where the incubation time was determined according to the time in the pre-experiment when the maximum aggregation appeared. The platelet aggregation rate (AR) and platelet aggregation inhibition rate (AIR) were calculated according to the following formulas:
AR=(1−ARtest sample/ARcontrol)
In the case of `CCOC(=O)c1c(C)nc(-c2cccc(C#N)c2)n1OCc1cccc(C#N)c1` [LY-26x, ethyl 1-[(3-cyanobenzyl)oxy]-2-(3-cyanophenyl)-4-methyl-1H-imidazole-5-carboxylate], the inhibition – broadly, the relative decrease from the control value, in per cent – at 30 µM was found to be 3.21%.
Regarding `CCOC(=O)c1c(C)nc(-c2cccc(C#N)c2)n1OCCC(=O)O` [LY-26i, 3-{[2-(3-cyanophenyl)-5-(ethoxycarbonyl)-4-methyl-1H-imidazol-1-yl]oxy}propionic acid], the inhibition at 30 µM came to 24.4%.
On to `CCOC(=O)c1c(C)nc(-c2cccc(C#N)c2)n1OCC(N)=O` [LY-26h, ethyl 1-(2-amino-2-oxoethoxy)-2-(3-cyanophenyl)-4-methyl-1H-imidazole-5-carboxylate], for which the inhibition at 30 µM was 18.9%.

The experiment is the same for the next values; noted with them: Oryctolagus cuniculus, Platelet; rabbit PRP, inducer ADP, absorbance 655 nm; read-out: IC50 (Mean ± SE), ADP-induced platelet aggregation.
Regarding `CCOC(=O)c1c(-c2ccccc2)nc(-c2cccc(C#N)c2)n1O` [LY-16, ethyl 2-(3-cyanophenyl)-1-hydroxy-4-phenyl-1H-imidazole-5-carboxylate], the IC50 (commonly the concentration that inhibits the measured activity by half) is 19.87 ± 0.126 µM.
On to `CCOC(=O)c1c(C)nc(-c2cccc(C#N)c2)n1OCc1ccncc1` [LY-26j, ethyl 2-(3-cyanophenyl)-4-methyl-1-(pyridin-4-methoxy)-1H-imidazole-5-carboxylate], for which the IC50 turned out to be 6.196 ± 0.0526 µM.
Same read-out and setting: the value for `CCOC(=O)c1c(C)nc(-c2cccc(C#N)c2)n1OCc1ccccc1C#N` [LY-26w, ethyl 1-[(2-cyanobenzyl)oxy]-2-(3-cyanophenyl)-4-methyl-1H-imidazole-5-carboxylate] was 9.38 ± 0.565 µM.
Same read-out and setting: the result for `COn1c(-c2cccc(C#N)c2)nc(C)c1C(=O)O` [LY-27a, 4-methyl-2-(3-cyanophenyl)-1-methoxy-1H-imidazole-5-carboxylic acid] reads 7.99 ± 0.217 µM; that for `CCOC(=O)c1c(C)nc(-c2cccc(-c3noc(=O)[nH]3)c2)n1O` [LY-15, ethyl 1-hydroxy-4-methyl-2-[3-(5-oxo-4,5-dihydro-1,2,4-oxadiazol-3-yl)phenyl]-1H-imidazole-5-carboxylate], 22.1 ± 0.299 µM.
Same read-out and setting: the result for `CCOC(=O)c1c(C)nc(-c2ccc(C#N)cc2)n1OC` [LY-22, ethyl 4-methyl-2-(4-cyanophenyl)-1-methoxy-1H-imidazole-5-carboxylate] reads 13.4 ± 1.03 µM.
`CCOC(=O)c1c(C)nc(-c2cccc(C#N)c2)n1OCc1ccccc1` [LY-26k, ethyl 1-(benzyloxy)-2-(3-cyanophenyl)-4-methyl-1H-imidazole-5-carboxylate]: the IC50 turned out to be 5.93 ± 0.265 µM.
Same read-out and setting: the value for `CCOC(=O)c1c(C)nc(-c2ccc(OCC(C)C)c(C#N)c2)n1OC(C)=O` [LY-8a, ethyl 1-acetoxy-2-(3-cyano-4-isobutoxyphenyl)-4-methyl-1H-imidazole-5-carboxylate] was 5.214 ± 0.0152 µM; that for `CCOC(=O)c1c(C)nc(-c2cccc(C#N)c2)n1OCC` [LY-26b, ethyl 2-(3-cyanophenyl)-1-ethoxy-4-methyl-1H-imidazole-5-carboxylate] was 16.5 ± 1.07 µM.
Same read-out and setting: the result for `CCOC(=O)c1c(C)nc(-c2cccc(C#N)c2)n1OCc1ccc([N+](=O)[O-])cc1` [LY-26v, ethyl 2-(3-cyanophenyl)-4-methyl-1-[(4-nitrobenzyl)oxy]-1H-imidazole-5-carboxylate] reads 8.75 ± 0.159 µM; that for `Cc1ccc(COn2c(-c3cccc(C#N)c3)nc(C)c2C(=O)O)cc1` [LY-27s, 4-methyl-2-(3-cyanophenyl)-1-(4-methylbenzyl)oxy-1H-imidazole-5-carboxylic acid], 6.56 ± 0.357 µM; that for `CCOCCOn1c(-c2cccc(C#N)c2)nc(C)c1C(=O)OCC` [LY-26e, ethyl 2-(3-cyanophenyl)-1-(2-ethoxyethoxy)-4-methyl-1H-imidazole-5-carboxylate], 6.25 ± 0.21 µM.
The same measure, in the same setting: the result for `CCOC(=O)c1c(C)nc(-c2cccc(C#N)c2)n1OCc1ccccc1F` [LY-26l, ethyl 2-(3-cyanophenyl)-1-[(2-fluorobenzyl)oxy]-4-methyl-1H-imidazole-5-carboxylate] reads 5.88 ± 0.196 µM; that for `CCOC(=O)c1c(C)nc(-c2cccc(C#N)c2)n1OCc1ccc(C(=O)OC)cc1` [LY-26u, ethyl 2-(3-cyanophenyl)-1-{[4-(methoxycarbonyl)benzyl]oxy}-4-methyl-1H-imidazole-5-carboxylate], 9.47 ± 0.856 µM.
For `CCOC(=O)c1c(C)nc(-c2cccc(C#N)c2)n1OCc1ccc(OC)cc1` [LY-26t, ethyl 2-(3-cyanophenyl)-1-[(4-methoxybenzyl)oxy]-4-methyl-1H-imidazole-5-carboxylate], the IC50 amounted to 6.83 ± 0.0856 µM.
Same read-out and setting: the value for `CCOC(=O)c1c(C)nc(-c2cccc(C#N)c2)n1O` [LY-10, ethyl 2-(3-cyanophenyl)-1-hydroxy-4-methyl-1H-imidazole-5-carboxylate] was 17.6 ± 0.952 µM; that for `Cc1nc(-c2cccc(C#N)c2)n(OCc2ccccc2)c1C(=O)O` [LY-27k, 4-methyl-2-(3-cyanophenyl)-1-benzyloxy-1H-imidazole-5-carboxylic acid] was 6.24 ± 0.324 µM.
On the same count and under the same terms, the value for `CCOC(=O)COn1c(-c2cccc(C#N)c2)nc(C)c1C(=O)OCC` [LY-26g, ethyl 2-(3-cyanophenyl)-1-(2-ethoxy-2-oxoethoxy)-4-methyl-1H-imidazole-5-carboxylate] was 6.8 ± 0.152 µM; that for `CCOC(=O)c1c(C)nc(-c2cccc(C#N)c2)n1C` [LY-30a, ethyl 2-(3-cyanophenyl)-1,4-dimethyl-1H-imidazole-5-carboxylate] was 22.1 ± 0.703 µM.
With `CCOC(=O)c1c(C)nc(-c2cccc(C#N)c2)n1OCc1ccc(C)cc1` [LY-26s, ethyl 2-(3-cyanophenyl)-4-methyl-1-[(4-methylbenzyl)oxy]-1H-imidazole-5-carboxylate], the IC50 was determined as 6.31 ± 0.399 µM.
The same measure, in the same setting: the value for `CCOC(=O)c1c(C)nc(-c2cccc(C#N)c2)n1OCc1ccc(F)cc1` [LY-26n, ethyl 2-(3-cyanophenyl)-1-[(4-fluorobenzyl)oxy]-4-methyl-1H-imidazole-5-carboxylate] was 5.88 ± 0.196 µM.
In the case of `COn1c(-c2cccc(C#N)c2)nc(C)c1C(=O)NC(C)C` [LY-28b, 4-methyl-2-(3-cyanophenyl)-1-methoxy-N-isopropyl-1H-imidazole-5-carboxamide], the IC50 stood at 11.2 ± 0.966 µM.
On to `CCOC(=O)c1c(C)nc(-c2cccc(C#N)c2)n1OCc1ccc(Cl)cc1` [LY-26q, ethyl 1-[(4-chlorobenzyl)oxy]-2-(3-cyanophenyl)-4-methyl-1H-imidazole-5-carboxylate], for which the IC50 was 6.83 ± 0.265 µM.
On the same count and under the same terms, the value for `CCOC(=O)c1c(C)nc(-c2cccc(C#N)c2)n1OCc1cccc(Cl)c1` [LY-26p, ethyl 1-[(3-chlorobenzyl)oxy]-2-(3-cyanophenyl)-4-methyl-1H-imidazole-5-carboxylate] was 19.4 ± 0.355 µM; that for `CCOC(=O)c1c(C)nc(-c2ccccc2C#N)n1OC` [LY-19, ethyl 4-methyl-2-(2-cyanophenyl)-1-methoxy-1H-imidazole-5-carboxylate] was 14.86 ± 0.0568 µM; that for `CCOC(=O)c1c(C)nc(-c2cccc(C#N)c2)n1OC` [LY-26a, ethyl 2-(3-cyanophenyl)-1-methoxy-4-methyl-1H-imidazole-5-carboxylate] was 9.13 ± 0.346 µM.
Consider `CCOC(=O)c1c(C)nc(-c2ccc(OCc3ccccc3)c(C#N)c2)n1O` [LY-7b, ethyl 2-(3-cyano-4-benzyloxy)phenyl-1-hydroxy-4-methyl-1H-imidazole-5-carboxylate], for which the IC50 is 19 ± 0.317 µM.
As to `CCOn1c(-c2cccc(C#N)c2)nc(C)c1C(=O)O` [LY-27b, 4-methyl-2-(3-cyanophenyl)-1-ethoxy-1H-imidazole-5-carboxylic acid], the IC50 amounted to 9.71 ± 0.557 µM.
Same read-out and setting: the result for `CCOC(=O)c1c(C)nc(-c2cccc(C#N)c2)n1OCc1ccc(Br)cc1` [LY-26r, ethyl 1-[(4-bromobenzyl)oxy]-2-(3-cyanophenyl)-4-methyl-1H-imidazole-5-carboxylate] reads 24.6 ± 0.895 µM; that for `CCOC(=O)c1c(C)nc(-c2cccc(C#N)c2)n1OCc1ccccc1Cl` [LY-26o, ethyl 1-[(2-chlorobenzyl)oxy]-2-(3-cyanophenyl)-4-methyl-1H-imidazole-5-carboxylate], 8.71 ± 0.242 µM.
Still for that read-out and setting: the result for `CCOC(=O)c1c(C)nc(-c2ccc(O)c(C#N)c2)n1O` [LY-8b, ethyl 2-(3-cyano-4-hydroxyphenyl)-1-hydroxy-4-methyl-1H-imidazole-5-carboxylate] reads 18.3 ± 1.03 µM; that for `Cc1nc(-c2cccc(C#N)c2)n(O)c1C(=O)O` [LY-11, 2-(3-cyanophenyl)-1-hydroxy-4-methyl-1H-imidazole-5-carboxylic acid], 7.865 ± 0.0365 µM; that for `CCOC(=O)c1c(C)nc(-c2cccc(C#N)c2)n1OC(C)C` [LY-26c, ethyl 2-(3-cyanophenyl)-1-isopropoxy-4-methyl-1H-imidazole-5-carboxylate], 6.74 ± 0.326 µM.
Same read-out and setting: the result for `CCCNC(=O)c1c(C)nc(-c2cccc(C#N)c2)n1OC` [LY-28a, 4-methyl-2-(3-cyanophenyl)-1-methoxy-N-propyl-1H-imidazole-5-carboxamide] reads 9.57 ± 0.226 µM.

Still in this experiment, the particulars now being: rabbit PRP, inducer ADP, absorbance 655 nm; read-out: IC50 (Mean ± SE), ADP-induced platelet aggregation.
Turning to `CCOC(=O)c1c(C)nc(-c2ccc(OCC(C)C)c(C#N)c2)n1O` [LY-7a, ethyl 2-(3-cyano-4-isobutyloxy)phenyl-1-hydroxy-4-methyl-1H-imidazole-5-carboxylate], the IC50 was 16.8 ± 0.874 µM.

The record behind these values is patent US20220064127A1, “PLATELET AGGREGATION INHIBITOR, PREPARATION AND USES THEREOF” (SHENYANG HINEWY PHARMACEUTICAL TECHNOLOGY CO., LTD., priority 2020, published 2022).
